The nature of the data set: gradient 5% acetonitrile 3 min, to 50% in 2 min, to 85% in 15 min, held 3 min, 100 µL/min. The settings on record: column: Zorbax Extend-C18 2.1 x 50 mm; eluents: water / acetonitrile, 0.1% formic acid. In a few lines:
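Standards, all pure, were combined into mixtures of ~100 molecules and run at 100 μL/min on a Zorbax Extend-C18 column (2.1 × 50 mm, 1.8 μm) with water and acetonitrile, each containing 0.1% formic acid. A coupled quadrupole time-of-flight mass spectrometer operated in positive and negative ionization mode. Retention time values come from computationally picked adduct peaks, each inspected manually.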
In turn, `Cc1cc2nn(CC(=O)Nc3cc(F)ccc3F)c(=O)n2c(Nc2ccc(F)c(C)c2)n1` came in with an RP-LC retention time of 1100 s. With `COc1ccc(C(=O)N2CCC3(C2)C(=O)N(C)c2ccccc23)cc1` (centres undefined) the figure was 743 s; with `CCc1ccc(CNC(=O)C2CCN(C(=O)c3ncn4c3COC(c3ccccc3)C4)CC2)cc1` (centres undefined), 756 s; with `Cc1csc(-c2cc(S(=O)(=O)Nc3ccc(Cl)cc3C)c(C)s2)n1`, 1140 s. For the compound `CCNc1cc(N2CCC(CCC(=O)NCc3c(C)nn(C)c3C)CC2)ncn1`, the RP-LC retention time is 575 s. Take `CCn1c(C(=O)NCCCN2CCCC(C)C2)cc2cc(S(=O)(=O)N(C)C)ccc21` (centres undefined): the RP-LC retention time came to 677 s. Consider `COc1ccccc1NC(=O)C1CCN(S(=O)(=O)c2c(C)[nH]c(C)c2C(=O)N2CCCC2)CC1`, for which the RP-LC retention time amounted to 693 s. With `Cc1ccc(CNC(=O)C(C)n2nc(C)c3nn(-c4ccccc4)c(C)c3c2=O)o1` (centres undefined) the figure was 807 s; with `O=C(NCCCn1ncccc1=O)c1coc(NC(=O)c2cccs2)n1`, 589 s. In the case of `CCOc1cc(-c2cccc(Cl)c2)nc2ccc(NC(=O)c3ccco3)cc12`, the RP-LC retention time was 830 s.

With `COc1ccc(N2C(=O)N[C@@H]3C[C@]2(C)Oc2ccc(C)cc23)c(OC)c1`, the RP-LC retention time was found to be 870 s. As for `Cc1ccc(-n2cc3c(N4CCCC(C(=O)NCc5cccc(C(F)(F)F)c5)C4)ncnc3n2)cc1` (centres undefined), the RP-LC retention time is 772 s. Turning to `Cc1ccc(NC(=O)N2CCC[C@@H]2C(=O)NCc2csc(-c3ccccc3)n2)cc1C`, the RP-LC retention time was found to be 861 s. With `O=C(CC1CCOC2(CCN(Cc3cccs3)CC2)C1)NC1CC1` (centres undefined) the figure was 578 s. In turn, `COc1ccc(NC(=O)C2CCc3sc(C(=O)N4CCCC4)cc3C2)cc1F` (centres undefined) yielded an RP-LC retention time of 779 s. In the case of `O=C(O)/C=C/C(=O)N1Cc2cc3ccccc3nc2C1` it was 681 s; in that of `COc1ccc(-c2ncc(NC(=O)C3CCC3)cn2)cc1`, 848 s; in that of `Cc1ccc(-c2csc(NC(=O)c3coc4ccccc4c3=O)n2)o1`, 1070 s. Turning to `COc1ccc(-c2csc(Nc3ncccn3)n2)cc1OC`, the RP-LC retention time turned out to be 824 s. With `Cc1nc(-c2cc(S(=O)(=O)N3CCC(C(=O)NCCc4cccs4)CC3)c(C)s2)no1`, the RP-LC retention time came out at 919 s.

`C[C@H]1CN(C(=O)Nc2ccc(Cl)cc2)C[C@@H]1c1nc(-c2cccnc2)no1` registered an RP-LC retention time of 863 s. Consider `COC(=O)c1cccc(C(=O)N2CCc3ccccc32)n1`, for which the RP-LC retention time is 797 s.

In turn, `COc1ccc(-c2ccnc3nc(-c4ccccc4OC)nn23)c(F)c1` gave an RP-LC retention time of 872 s.

The compound `Cc1ccc(NS(=O)(=O)c2ccc(-c3c(C)noc3C)cc2)c(Br)c1` displayed an RP-LC retention time of 1020 s. With `Fc1ccc(-c2nn3c(CSc4ccccc4)nnc3s2)cc1`, the RP-LC retention time was 967 s. Compound `CCN(CC)CCCNC(=O)CCc1c(-c2ccc(Cl)cc2)nc2ccccn12` had an RP-LC retention time of 558 s. In the case of `Cc1nc2cc(-c3noc(-c4cc(Cl)ccc4F)n3)ccc2o1` it was 1150 s; in that of `Cc1cccc(OCc2nc(CCN(C)C(=O)NCc3ccccc3)no2)c1`, 832 s.

As for `COc1ccc(OC)c(S(=O)(=O)N(C)CC2(C)CCOCC2)c1`, the RP-LC retention time is 852 s. For the compound `CCn1ccc2c(cc(C(=O)Nc3ccc(C)c(F)c3)n2C)c1=O`, the RP-LC retention time was found to be 830 s. Turning to `CCN1C(=O)COc2ccc(-c3noc(-c4ccc(CS(=O)(=O)c5ccc(C)cc5)cc4)n3)cc21`, the RP-LC retention time was found to be 1100 s. Consider `COC(=O)c1cnc2nc(C)ccc2c1Nc1ccc(C)cc1Cl`, for which the RP-LC retention time turned out to be 752 s. In the case of `CCN1C(=O)COc2ccc(-c3nc(NC(=O)c4ccccc4Br)sc3C)cc21` it was 1010 s; in that of `CCc1ccc(S(=O)(=O)NCCc2cn(CC(C)C)c3ncccc23)cc1`, 946 s.

In the case of `Cc1ccc(-n2c(C)c(C)c3c(=O)n(CC(=O)N4CCc5ccccc54)cnc32)cc1`, the RP-LC retention time is 1040 s.

`CC(Cc1ccco1)NC(=O)c1cccn(C)c1=O` (centres undefined) came in with an RP-LC retention time of 649 s. `Cc1csc(NC(=O)Cn2c(=O)n(C(C)C)c3ccc(-c4noc(C)n4)cc32)n1` displayed an RP-LC retention time of 780 s. In the case of `CC(CCc1ccccc1)NC(=O)c1cc2n(n1)CC(C)(C(=O)NC1CCCC1)N(C)C2=O` (centres undefined) it was 844 s; in that of `Cc1noc2nc(C)n(CC(=O)NCc3cccc(Br)c3)c(=O)c12`, 805 s; in that of `O=C(NCCc1c[nH]c2ccccc12)C(=O)NCC(c1ccco1)N1CCOCC1` (centres undefined), 582 s. Consider `Clc1ccc(-c2ccc(CNc3nn[nH]n3)o2)c(Cl)c1`, for which the RP-LC retention time was 845 s. In turn, `CCOc1ccc(CCNC(=O)c2c(C)oc3c2C2=NCCN2C=N3)cc1OCC` had an RP-LC retention time of 651 s. Compound `CCOC(=O)C1=C(CN2CCN(Cc3ccc4c(c3)OCO4)CC2)NC(=O)NC1c1ccc(F)cc1` (centres undefined) returned an RP-LC retention time of 675 s. In the case of `CCC(C)NC(=O)c1cnn(-c2cc(-c3nc(C4CC4)no3)ccn2)c1C` (centres undefined) it was 973 s; in that of `CC(C)Cc1cc(-c2nn3c(-c4ccc(Br)cc4)nnc3s2)n[nH]1`, 1150 s; in that of `Cc1ccccc1Nc1c(-c2cc(Br)ccc2F)nc2ccc(Br)cn12`, 1120 s. As to `O=C1COc2ccc(NC(=O)c3cc(C4CC4)n(C4CCS(=O)(=O)C4)n3)cc2N1` (centres undefined), the RP-LC retention time stood at 652 s.

For `Cc1ccc2[nH]c(C(=O)NC3CC3)cc2c1`, the RP-LC retention time stood at 782 s. Compound `CCc1noc(NC(C)=O)c1-c1ccc(OC)c(S(=O)(=O)NCc2ccccc2)c1` displayed an RP-LC retention time of 766 s.

For `CN1CCCN(C(=O)c2cn3ccnc(-c4ccccc4)c3n2)CC1`, the RP-LC retention time is 710 s.

With `Cc1cnc(C(=O)NC2C[C@H]3CC[C@@H](C2)N3C(=O)c2cnc(C)cn2)cn1` (some centres undefined), the RP-LC retention time stood at 584 s. On to `CCc1nc(-c2csc(S(=O)(=O)N3CCC(C(=O)NC4CCCC4)CC3)c2)no1`, for which the RP-LC retention time came to 880 s. For `COc1cccc(-c2nc3cnccn3c2NCCC(=O)NC2CCCC2)c1`, the RP-LC retention time was found to be 675 s. As for `CCOc1ccc(CCNC(=O)c2snc(C(=O)NCc3ccccc3)c2N)cc1OCC`, the RP-LC retention time was found to be 1090 s. As to `CC1CS(=O)(=O)N(c2ccc(S(=O)(=O)N3CCC(C(N)=O)CC3)cc2)C1=O` (centres undefined), the RP-LC retention time amounted to 640 s. Turning to `Cn1cnc2c(C(=O)NCC3CCCO3)nn(-c3ccccc3)c2c1=O` (centres undefined), the RP-LC retention time turned out to be 641 s. Compound `O=C(Nc1nccs1)C(=O)c1c(-c2ccccc2)cc2ccccn12` registered an RP-LC retention time of 866 s. `O=C(c1ccc(F)c(F)c1)N1CCc2nc(-c3ccc(Cl)cc3)ncc2C1`: the RP-LC retention time came out at 1020 s. For the compound `Cc1ccc2c(c1)N(Cc1ccc(F)cc1)N=C(C(=O)N1CCCC1)S2(=O)=O`, the RP-LC retention time came to 889 s.

The values above are taken from the METLIN SMRT retention time set (Domingo-Almenara et al. 2019).
